According to US20150164874A1, “PIRFENIDONE AND ANTI-FIBROTIC THERAPY IN SELECTED PATIENTS” (INTERMUNE, INC., priority 2011, published 2015):

How the values were obtained:
[1] = system: IPF patients with mild to moderate impairment in lung function; test: Phase 3 trials Study 1 and Study 2 of pirfenidone vs placebo in IPF patients, retrospective re-analysis (ITT vs novel selection criteria); format: in vivo, human; conditions: for 6MWT change from baseline, Relative Δ / % DLco change from baseline, Relative Δ / % FVC ≧10% decline, Relative Δ / Progression-free survival, time to event HR / SpO2 During 6MWT change from baseline, Relative Δ / Survival, time to event HR / UCSD SOBQ (dyspnea) change from baseline, Relative Δ / Worsening IPF, time to event HR: Study 1 and Study 2 pooled, pirfenidone vs placebo; for Interaction with Treatment: Group with Greater Pirfenidone Effect: multivariate model of FVC decline at 72 weeks
Text: Two multinational, randomized, double-blind, placebo-controlled Phase 3 trials, referred to herein as Study 1 and Study 2, were designed and performed to evaluate the safety and efficacy of pirfenidone in IPF patients with mild to moderate impairment in lung function. Both trials enrolled patients in North America, Europe and Australia with roughly 75% of the total 779 patients enrolled in North America.
Study 1 enrolled a total of 344 patients. Patients were randomized 1:1 to receive a total daily dose of 2403 mg pirfenidone, or placebo. Study 2 enrolled a total of 435 patients, and patients were randomized 2:2:1 to receive a total daily dose of 2403 mg pirfenidone, or placebo, or a total daily dose of 1197 mg pirfenidone, respectively. The total daily dose of pirfenidone was administered in three divided doses, three times per day.
If the surgical lung biopsy or HRCT scans were ambiguous, the slides or HRCT images were evaluated by an adjudicator for a second opinion.
Exclusion criteria included: FEV1/FVC<0.7 after bronchodilator administration, bronchodilator response, RV>120%, history of significant environmental exposure known to cause pulmonary fibrosis, and diagnosis of connective tissue disease or other known explanation of interstitial lung disease (ILD).
Enrollment of both trials was completed in less than 13 months following randomization of the first patient into the program in late April 2006. Ninety-seven percent (97%) of all patients in the two studies who were living and had not received a lung transplant, completed their Week 72 study visit.
The primary endpoint of both trials was change in percent predicted Forced Vital Capacity (FVC) after 72 weeks of treatment evaluated with a nonparametric rank ANCOVA analysis. The pre-specified secondary endpoints monitored during the studies included: (a) Time to worsening of IPF, defined as time to acute IPF exacerbation, IPF-related death, lung transplant or respiratory hospitalization, whichever comes first; (b) Progression-free survival defined as time to the first occurrence of either of the following (as compared to the patient's baseline): (1) 10% absolute decline in percent predicted FVC, or (2) 15% absolute decline in percent predicted Hb-corrected DL(CO), or (3) death (in the case of FVC or DL(CO), the decline must be confirmed at two consecutive visits at least 6 weeks apart); (c) Categorical assessment of absolute change from Baseline to Week 72 in percent predicted FVC; (d) Change from Baseline to Week 72 in dyspnea measured by the University of California at San Diego Shortness-of-Breath Questionnaire (UCSD SOBQ); (e) Change from Baseline to Week 72 in the percent predicted Hb-corrected DL(CO); (f) Change from Baseline to Week 72 in the worst oxygen saturation by pulse oximetry (SpO2) measurement observed during the Six-Minute Walk Test; (g) Change from Baseline to Week 72 in distance walked in the Six-Minute Walk Test (6MWT).
After the studies were completed, a retrospective multivariate model of data identified predictors of greater FVC decline at 72 weeks and variables that have a statistical interaction with pirfenidone treatment (i.e. the magnitude of the pirfenidone treatment effect is different at different levels of these variables).
Data from Study 1 and Study 2 were re-analyzed, selecting patients according to the following novel criteria instead of the original Intention To Treat (IIT) criteria:
(c) Time since IPF diagnosis >0.5 years and <48 months
Mean change in FVC in pirfenidone-treated vs. placebo-treated groups from Study 1 and Study 2, for the original patient population selected using the ITT criteria, is shown in FIG. 2A. When the patient population is instead selected using the novel criteria above, the mean change in FVC in pirfenidone-treated vs. placebo-treated groups for the patient is shown in FIG. 2B. Patients in both pirfenidone-treated and placebo-treated groups experienced a decline in mean % FVC from baseline. […]

[2] = system: IPF patients with mild to moderate impairment in lung function; test: Phase 3 study of Actimmune in 826 IPF patients, retrospective analysis of FVC progression; format: in vivo, human; conditions: Phase 3 study 2003-2007
Text: FIGS. 1A-1D depicts a analysis of FVC progression from a clinical trial involving a different drug, interferon gamma-lb, which is inert with respect to effect on efficacy outcomes, in 826 patients with IPF, when the patients are segregated according to % FVC (FIG. 1A), % DLco (FIG. 1B), time since IPF diagnosis (FIG. 1C) and FEV1/FVC ratio (FIG. 1D).
In a prior trial involving 826 patients, data regarding progression of FVC was collected as part of a randomized, double-blind, placebo-controlled Phase 3 study conducted from 2003-2007 that was designed to evaluate the safety and efficacy of Actimmune(R) in IPF patients with mild to moderate impairment in lung function.

[3] = Study 1 and Study 2, novel criteria, week 72
[4] = Study 1 and Study 2, original ITT criteria, week 48
[5] = Study 1 and Study 2, original ITT criteria, week 72

Molecule: Cc1ccc(=O)n(-c2ccccc2)c1 [pirfenidone, 5-methyl-1-phenyl-2-(1H)-pyridone]
- 6MWT change from baseline, Relative Δ ([1]; Novel criteria, week 48): 64.2%
- % DLco change from baseline, Relative Δ ([1]; Novel criteria, week 48): 36.9%
- % FVC ≧10% decline, Relative Δ ([1]; Novel criteria, week 48): 60.4%
- Progression-free survival, time to event HR ([1]; Novel criteria, week 48): 0.31
- SpO2 During 6MWT change from baseline, Relative Δ ([1]; Novel criteria, week 48): 62.3%
- Survival, time to event HR ([1]; Novel criteria, week 48): 0.16
- UCSD SOBQ (dyspnea) change from baseline, Relative Δ ([1]; Novel criteria, week 48): −46.5%
- Worsening IPF, time to event HR ([1]; Novel criteria, week 48): 0.75
- 6MWT change from baseline, Relative Δ ([1]; Pooled ITT, week 48): 41%
- % DLco change from baseline, Relative Δ ([1]; Pooled ITT, week 48): 16%
- % FVC ≧10% decline, Relative Δ ([1]; Pooled ITT, week 48): 39%
- Progression-free survival, time to event HR ([1]; Pooled ITT, week 48): 0.53
- SpO2 During 6MWT change from baseline, Relative Δ ([1]; Pooled ITT, week 48): 21%
- Survival, time to event HR ([1]; Pooled ITT, week 48): 0.42
- UCSD SOBQ (dyspnea) change from baseline, Relative Δ ([1]; Pooled ITT, week 48): −29%
- Worsening IPF, time to event HR ([1]; Pooled ITT, week 48): 0.80
- absolute difference in mean change from baseline % FVC between pirfenidone-treated and placebo-treated groups ([1]; Study 1 and Study 2, novel criteria (% FVC 50%-90%, FEV1/FVC >0.80, time since diagnosis >0.5 years and <48 months), week 48): 6.1%
- relative difference in mean change from baseline % FVC between pirfenidone-treated and placebo-treated groups ([1]; Study 1 and Study 2, novel criteria, week 48): 63.3%
- absolute difference in mean change from baseline % FVC between pirfenidone-treated and placebo-treated groups [1, 3]: 7.9%
- relative difference in mean change from baseline % FVC between pirfenidone-treated and placebo-treated groups [1, 3]: 57.0%
- absolute difference in mean change from baseline % FVC between pirfenidone-treated and placebo-treated groups [1, 4]: 3.3%
- relative difference in mean change from baseline % FVC between pirfenidone-treated and placebo-treated groups [1, 4]: 41.6%
- absolute difference in mean change from baseline % FVC between pirfenidone-treated and placebo-treated groups [1, 5]: 2.5%
- relative difference in mean change from baseline % FVC between pirfenidone-treated and placebo-treated groups [1, 5]: 22.8%
- Interaction with Treatment: Group with Greater Pirfenidone Effect ([1]; variable % FVC (90%), P-value 0.096): FVC <90%
- Interaction with Treatment: Group with Greater Pirfenidone Effect ([1]; variable Time since Diagnosis of IPF (0.5 yrs), P-value 0.043): Time >0.5 years

B1: Actimmune: a different drug, interferon gamma-lb, inert with respect to effect on efficacy outcomes in IPF (protein, UniProt P01579 24-161, looked up)
Interferon gamma: QDPYVKEAENLKKYFNAGHSDVADNGTLFLGILKNWKEESDRKIMQSQIVSFYFKLFKNFKDDQSIQKSVETIKEDMNVKFFNSNKKKRDDFEKLTNYSVTDLNVQRKAIHELIQVMAELSPAAKTGKRKRSQMLFRG
- effect on FVC progression / efficacy outcomes [2]: does not have an effect on these outcomes
